Consider 19 compounds from patent publication US12637435B2, “Nitrogen-containing heterocyclic compound or salt thereof, use thereof, and intermediate thereof” (FUJIFILM Corporation, priority 2020, dated 2026).

Experiment [1] has as its target T1, recombinant human DHODH (Homo sapiens, UniProt Q02127).
T1 construct: DHODH, 31-395aa, Human, His tag, E. coli, ATGP1615; His tag; purchased ATGen Co. Ltd. ATGP1615; host or cells: E. coli
Briefly: DHODH enzyme reaction inhibition test (DCIP-coupled assay). It is filed as biochemical. The note with it: recombinant human DHODH 0.175 μg/mL, DCIP absorbance 600 nm, 50 minutes, pH 8.0; read-out: Enzyme reaction inhibitory effect (IC50). How it is done: The DHODH enzyme assay was carried out with reference to “Benjamin Bader, Wolfgang Knecht, Markus Fries, and Monika Loffler, Expression, Purification, and Characterization of Histidine-Tagged Rat and Human Flavoenzyme Dihydroorotate Dehydrogenase, Protein Expression and Purification, 1998, 13, 414-422.”
The DHODH activity was evaluated using an enzyme assay system that is coupled with an assay in which a blue coloring agent 2,6-dichlorophenolindophenol (DCIP, available from MP Biomedicals, LLC, MP150118) is quenched. Purified recombinant human DHODH (DHODH, 31-395aa, Human, His tag, E. coli, ATGP1615) was purchased from ATGen Co. Ltd. The enzyme assay was carried out in a 384-well plate using a buffer solution containing 100 mmol/L Hepes (available from Dojindo Laboratories, 342-01375), 400 mmol/L NaCl (available from FUJIFILM Wako Pure Chemical Corporation, 191-01665), 10% Glycerol (available from FUJIFILM Wako Pure Chemical Corporation, 075-00616), 0.05% Triton X-100 (available from Sigma-Aldrich Co., LLC, T8787-100ML), 0.2 mmol/L Ubiquinone-10 (available from FUJIFILM Wako Pure Chemical Corporation, 216-00761), 0.1 mmol/L DHO (L-dihydroorotic acid, available from Sigma-Aldrich Co., LLC, D7128), 0.5% DMSO (dimethylsulfoxide, available from FUJIFILM Wako Pure Chemical Corporation, 047-29353), 0.175 μg/mL DHODH, and 0.12 mmol/L DCIP and having a pH adjusted to 8.0 by adding 5 mol/L potassium hydroxide (available from FUJIFILM Wako Pure Chemical Corporation, 168-21815). A test compound with a predetermined concentration was added using Biomek NX (available from Beckman Coulter Inc.), and the enzyme reaction was started by adding the substrate. The enzyme activity was assessed by measuring the decrease in DCIP absorbance (600 nm) for 50 minutes using an EnVision plate-reading spectrophotometer (available from PerkinElmer, Inc.).
The enzyme reaction inhibition rate at each test compound concentration was determined, and the 50% enzyme reaction inhibition concentration [IC50 (nmol/L)] was calculated using XLfit. Enzyme reaction inhibition rate (%)=(amount of luminescence in test compound-added well)/(amount of luminescence in DMSO-added well)×100
The abbreviations in the table have the following meanings. • A: IC50 value<10 nmol/L • B: 10 nmol/L≤IC50 value<100 nmol/L • C: 100 nmol/L≤IC50 value

Experiment [2] concerns human myeloid leukemia cell line HL60. Briefly: Cell growth test, HL60 (CellTiter-Glo). The experiment is classed as cell-based. The note with it: HL-60, 72 h, HL60 cells, 3 days, CellTiter-Glo luminescence, read-out: Cell growth inhibitory effect (GI50). How it is done:
The cell growth test was carried out using the human myeloid leukemia cell line HL60 (available from ATCC, CRL-240). As a culture medium of HL60 cells, RPMI 1640 (available from FUJIFILM Wako Pure Chemical Corporation, 189-02025) supplemented with 10% fetal bovine serum (available from Thermo Fisher Scientific, Inc., 10437-028), and 1% penicillin-streptomycin (10,000 U/mL, available from Thermo Fisher Scientific, Inc., 15140-122) was used. HL60 cells were seeded on a 384-well plate (available from Corning Inc., 4588) at a cell density of 1×10^3 cells/20 μL/well. After culturing overnight, 5 μL of the test compound having a predetermined concentration was added, and 3 days later, 25 μL of CellTiter-Glo (registered trademark) Luminescent Cell Viability Assay (available from Promega Corporation, G7573) was added, and then the amount of luminescence was measured using an EnVision plate reader (available from PerkinElmer, Inc.). Since the amount of luminescence is proportional to the intracellular concentration of adenosine triphosphate (ATP), the amount of luminescence was used as an indicator of the number of viable cells. The growth inhibitory concentration for each test compound concentration was calculated by the following expression.
The growth inhibition rate at each test compound concentration was determined, and the 50% growth inhibitory concentration [GI50 (nmol/L)] was calculated using XLfit. Growth inhibition rate (%)=(amount of luminescence in test compound-added well)/(amount of luminescence in DMSO-added well)×100
The abbreviations in the table have the following meanings. • A: GI50 value<100 nmol/L • B: 100 nmol/L≤GI50 value<1,000 nmol/L • C: 1,000 nmol/L≤GI50 value
In general terms: In ATP-based viability assays light output follows the ATP content of the culture.

T1 sequence (Q02127 31-395): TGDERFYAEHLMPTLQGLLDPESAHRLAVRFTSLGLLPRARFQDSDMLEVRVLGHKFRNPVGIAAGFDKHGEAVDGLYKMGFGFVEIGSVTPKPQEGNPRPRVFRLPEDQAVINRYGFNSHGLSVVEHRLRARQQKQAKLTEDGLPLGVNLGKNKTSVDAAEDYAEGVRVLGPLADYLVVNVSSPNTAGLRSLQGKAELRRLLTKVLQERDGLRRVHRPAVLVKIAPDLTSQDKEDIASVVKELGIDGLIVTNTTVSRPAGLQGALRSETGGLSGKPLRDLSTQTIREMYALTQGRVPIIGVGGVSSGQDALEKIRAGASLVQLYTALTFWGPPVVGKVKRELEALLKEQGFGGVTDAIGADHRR

Regarding `CS(=O)(=O)NC(=O)c1nc(C2CC2)cnc1Nc1cccc(-c2ccc(C#N)cc2)c1OC(F)F` [Example 3-51], the IC50 in experiment [1] is below 10 nM. In addition, the GI50 in experiment [2] lay within 100 to 1000 nM.

For `O=C(O)c1cc(C2CC2)cnc1Nc1cccc(C2=CCOCC2)c1OCC(F)(F)F` [Example 2-5], the IC50 in experiment [1] was below 10 nM. Moreover, the GI50 in experiment [2] was below 100 nM.

On to `Cc1ccc(-c2cccc(Nc3ncc(C4CC4)nc3C(=O)O)c2OCC(F)(F)F)c(C)n1` [Example 1-4, 6-cyclopropyl-3-((3-(2,6-dimethylpyridin-3-yl)-2-(2,2,2-trifluoroethoxy)phenyl)amino)pyrazine-2-carboxylic acid], for which, in experiment [1], the IC50 lay within 10 to 100 nM. Also, the GI50 in experiment [2] was 100 to 1000 nM.

`CCS(=O)(=O)NC(=O)c1nc(C2CC2)cnc1Nc1cccc(C2=CCOCC2)c1OCC(F)(F)F` [Example 3-17]: in experiment [1], the concentration for half-maximal inhibition (IC50) lay in the range of 10 to 100 nM. The GI50 in experiment [2] was at least 1000 nM.

On to `N#Cc1ccc(-c2cccc(Nc3ncc(C4CC4)nc3C(=O)O)c2OC(F)F)cc1` [Example 2-11], for which the IC50 in experiment [1] is below 10 nM. In addition, in experiment [2], the GI50 lay within 100 to 1000 nM.

For the compound `CNS(=O)(=O)NC(=O)c1nc(C2CC2)cnc1Nc1cccc(C2=CCOCC2)c1OCC(F)(F)F` [Example 3-20], the IC50 in experiment [1] was in the range of 10 to 100 nM. Further, the GI50 in experiment [2] lay in the range of 100 to 1000 nM.

For `COS(=O)(=O)NC(=O)c1nc(C2CC2)cnc1Nc1cccc(C2=CCOCC2)c1OCC(F)(F)F` [Example 3-19], in experiment [1], the IC50 lay in the range of 10 to 100 nM. Moreover, in experiment [2], the GI50 fell in the range of 100 to 1000 nM.

As for `CS(=O)(=O)NC(=O)c1cc(C2CC2)ncc1Nc1cccc(C2=CCOCC2)c1OCC(F)(F)F` [Example 3-61], the IC50 in experiment [1] is below 10 nM. Further, the GI50 in experiment [2] lay within 100 to 1000 nM.

With `Cc1cnc(Nc2cccc(C3=CCOCC3)c2OCC(F)(F)F)c(C(=O)NS(C)(=O)=O)n1` [Example 3-67], the IC50 in experiment [1] fell in the range of 10 to 100 nM. Moreover, the GI50 in experiment [2] lay in the range of 100 to 1000 nM.

With `C[C@H](Oc1c(Nc2ncc(C3CC3)nc2C(=O)NS(C)(=O)=O)cccc1C1=CCOCC1)C(F)(F)F` [Example 3-32], the IC50 in experiment [1] is below 10 nM. Further, in experiment [2], the GI50 was below 100 nM.

Consider `N#Cc1ccc(-c2cccc(Nc3ncc(C4CC4)cc3C(=O)NS(N)(=O)=O)c2OCC(F)(F)F)cc1` [Example 3-37], for which the IC50 in experiment [1] was below 10 nM. The GI50 in experiment [2] is below 100 nM.

On to `CS(=O)(=O)NC(=O)c1cc(C2CC2)cnc1Nc1cccc(-c2ccc(C#N)cc2)c1OCC(F)(F)F` [Example 3-36], for which the IC50 in experiment [1] is below 10 nM. Besides, in experiment [2], the GI50 is below 100 nM.

Turning to `C[C@H](Oc1c(Nc2ncc(C3CC3)nc2C(=O)NS(C)(=O)=O)cccc1C1CCOCC1)C(F)(F)F` [Example 3-13], in experiment [1], the IC50 fell in the range of 10 to 100 nM. The GI50 in experiment [2] fell in the range of 100 to 1000 nM.

Regarding `O=C(O)c1cc(C2CC2)ccc1Nc1cncc(C2=CCOCC2)c1OCC(F)(F)F` [Example 2-1], in experiment [1], the IC50 is below 10 nM. In addition, in experiment [2], the GI50 is 100 to 1000 nM.

Turning to `CC(O)c1nc(C2CC2)cnc1Nc1cccc(C2=CCOCC2)c1OCC(F)(F)F` (centres unmarked) [Example 1-11, 1-(6-cyclopropyl-3-((3-(3,6-dihydro-2-H-pyran-4-yl)-2-(2,2,2-trifluoroethoxy)phenyl)amino)pyrazin-2-yl)ethan-1-ol], the IC50 in experiment [1] was at least 100 nM. For the same compound, in experiment [2], the GI50 was at least 1000 nM.

For `CN(C)S(=O)(=O)NC(=O)c1nc(C2CC2)cnc1Nc1cccc(C2=CCOCC2)c1OCC(F)(F)F` [Example 3-11], the half-maximal inhibitory concentration (IC50) in experiment [1] is at least 100 nM. In addition, in experiment [2], the GI50 is at least 1000 nM.

On to `C[C@H](Oc1c(Nc2ccc(C3CC3)cc2C(=O)NS(C)(=O)=O)cncc1C1=CCOCC1)C(F)(F)F` [Example 3-25], for which the IC50 in experiment [1] was 10 to 100 nM. The GI50 in experiment [2] lay in the range of 100 to 1000 nM.

Regarding `CCCc1c(Nc2ncc(C3CC3)nc2C(=O)NS(N)(=O)=O)cccc1C1CCOCC1` [Example 3-26], in experiment [1], the IC50 is below 10 nM. Further, the concentration for 50% growth inhibition (GI50) in experiment [2] is below 100 nM.

For `N#CNC(=O)c1cc(C2CC2)cnc1Nc1cccc(C2CCOCC2)c1OCC(F)(F)F` [Example 3-6], the IC50 in experiment [1] is below 10 nM. The GI50 in experiment [2] was below 100 nM.

As usually defined, the IC50 is the concentration that gives 50% inhibition. The term GI50 denotes the concentration at which growth is held to half of that of the control.
